Columns and labels:
[1] = test system: FAD-GDH enzyme; assay: Cyclic voltammetric inhibition assays: FAD-GDH directly on carbon nanotubes, aromatic molecules added in solution; assay type: biochemical; conditions: 100 mmol L^−1 glucose; for effect on catalytic currents (inhibition of FAD-GDH): 200 μmol L^−1 in solution, sampling times of less than three hours; for catalytic current when the aromatic molecule is present in solution, versus absence of redox mediator: electrode of Comparative Example 4; for effect on performance of bioelectrocatalysis over time (inhibition of FAD-GDH): added in solution
Procedure: They were obtained with electrodes whose layer of FAD-GDH enzymes is directly deposited on layer 2 of carbon nanotubes in the presence of 100 mmol L^−1 of glucose solution.
The aromatic molecules 9.10-phenanthrenequinone, 1.10-phenanthroline-5.6-dione, phenanthrene and 1.10-phenanthroline are then gradually added in solution.
0 μM PX=CNTs functionalized by FAD-GDH in the presence of a glucose solution at 100 mmol L^−1 and in the absence of any aromatic molecules (X representing the aromatic molecule PLQ (cartridge A) or PQ (cartridge B))
400 μM PX=CNTs functionalized by FAD-GDH in the presence of a glucose solution at 100 mmol L^−1 and 400 μmol L^−1 of an aromatic molecule PLQ (cartridge A) or PQ (cartridge B)
400 μM PX (180 min)=CNTs functionalized by FAD-GDH in the presence of a glucose solution at 100 mmol L^−1 and […] of an aromatic molecule PLQ (cartridge A) or PQ (cartridge B) after incubation in the solution with a duration of 180 minutes.
200 μM PQ=CNTs functionalized by FAD-GDH in the presence of a solution of glucose at 100 mmol L^−1 and 200 μmol L^−1 of an aromatic molecule PQ (cartridge C and D)
200 μM PQ+200 μM PY (180 min)=CNTs functionalized by FAD-GDH in the presence of a glucose solution at 100 mmol L^−1, 200 μmol L^−1 of an aromatic molecule PQ and 200 μmol L^−1 of an aromatic molecule PY after incubation in the solution for a duration of 180 minutes. (Y represents the aromatic molecule PL (cartridge C) or PH (cartridge D)). • PLQ=1.10-phenanthroline-5.6-dione. • PQ=9.10-phenanthrenequinone, • PL=1.10-phenanthroline, • PH=phenanthrene,
The electrode tested was a vitreous carbon electrode (support 1) in which the FAD-GDH enzyme alone was deposited on layer 2 of carbon nanotubes (Comparative Example 4).

[2] = test system: FAD-GDH enzyme; assay: as above; assay type: biochemical; conditions: 100 mmol L^−1 glucose, 400 μmol L^−1 aromatic molecule
[3] = test system: FAD-GDH enzyme; assay: Cyclic voltammetry of bioelectrodes (carbon nanotubes / aromatic molecule / FAD-GDH) without and with glucose; assay type: biochemical
Procedure: In FIG. 4, the following terms have the following meanings: • uCNT=carbon nanotubes alone, • FADGDH=CNTs functionalized by FAD-GDH, • 25 mM glucose=CNTs functionalized by FAD-GDH in the presence of a glucose solution at 25 mmol L^−1, • 25 mM glucose (FAD region)=same as above, including the electroactive region of the FAD-GDH cofactor (FAD) in the measurement window in the presence of a glucose solution at 25 mmol L^−1, • FAD=Flavin Adenine Dinucleotide, • 25 mM glucose=concentration of the glucose solution of 25 mmol L^−1, • PYR-NHS=N-hydroxysuccinimide ester of pyrene-butyric acid, • PYR=pyrene, • 1.4-NQ=1.4-naphthoquinone, • PQ=9.10-phenanthrenequinone, • PL=1.10-phenanthroline, • MPL=5-methyl-1.10-phenanthroline, • PLQ=1.10-phenanthroline-5.6-dione.
The tested electrode was a vitreous carbon electrode (support 1) coated with layer 2 of carbon nanotubes alone (Comparative Example 2) or in which the FAD-GDH enzyme alone was deposited on layer 2 of carbon nanotubes (Comparative Example 4).
The dashed curve denoted 3 represents the cyclic voltammogram obtained with a larger electrochemical window (from −0.600 to 0.100 V vs SCE), in the presence of a glucose solution at 25 mmol L^−1.
In FIG. 4, the cartridge C represents the cyclic voltammograms of the electrode of Comparative Example 6 consisting of a vitreous carbon electrode, of layer 2 of carbon nanotubes functionalized by layer 3 of an aromatic molecule which is 1-pyrenebutyric acid N-hydroxysuccinimide ester (PANHS).
Cartridges D, G and H represent the cyclic voltammograms of the electrodes obtained in Examples 4, 5 and 6 respectively.
Cartridges E, F and I show the cyclic voltammograms obtained with the electrodes obtained in Examples 7, 8 and 1 respectively.

[4] = test system: enzyme FAD-GDH; conditions: known; supplier catalog; cited from earlier work

SMILES: O=C1C(=O)c2ccccc2-c2ccccc21 [9.10-phenanthrenequinone]
- effect on catalytic currents (inhibition of FAD-GDH) [1]: does not cause a drastic decrease in the catalytic currents
- catalytic current when the aromatic molecule is present in solution, versus absence of redox mediator [1]: strong increase of the catalytic current
- change of catalytic current after 180 min incubation (inhibition of FAD-GDH) [2]: no decrease in the catalytic current

SMILES: O=C1C(=O)c2cccnc2-c2ncccc21 [1.10-phenanthroline-5.6-dione]
- glucose concentration at saturation ([3]; aromatic molecule immobilized on carbon nanotube layer with FAD-GDH): ~130 mmol/L
- electrocatalytic current ([3]; aromatic molecule immobilized on carbon nanotube layer with FAD-GDH, potentials higher than 0 V vs SCE, after saturation with glucose): 600-700 μA
- electron transfer behavior of the aromatic molecule towards FAD-GDH ([3]; non-covalent immobilization on a layer of carbon nanotubes): the best redox aromatic molecule
- catalytic current when the aromatic molecule is present in solution, versus absence of redox mediator [1]: strong increase in the catalytic current
- effect on performance of bioelectrocatalysis over time (inhibition of FAD-GDH) [1]: progressive decrease in the performance of bioelectrocatalysis
- change of catalytic current after 180 min incubation (inhibition of FAD-GDH) [2]: sharp decrease in the catalytic current

SMILES: c1cnc2c(c1)ccc1cccnc12 [1.10-phenanthroline]
- change of catalytic current after 180 min incubation together with PQ (inhibition of FAD-GDH) ([1]; 200 μmol L^−1 PQ and 200 μmol L^−1 tested molecule, 180 min): The catalytic current drops again
- effect on performance of bioelectrocatalysis over time (inhibition of FAD-GDH) [1]: progressive decrease in the performance of bioelectrocatalysis
- inhibitory activity for FAD-GDH oxidation of glucose [4]: inhibitor of the enzyme FAD-GDH

SMILES: c1ccc2c(c1)ccc1ccccc12 [phenanthrene]
- effect on catalytic currents (inhibition of FAD-GDH) [1]: does not cause a drastic decrease in the catalytic currents
